# Reference: US20130210057A1, “USE OF LABEL-FREE BIOSENSORS TO UNDERSTAND AND IDENTIFY TREATMENT FOR CANCER” (CORNING INCORPORATED, priority 2012, published 2013)
# Entries after “also recorded” stand apart in the source; their conditions may differ. Like-named read-outs stand apart in the source and are kept apart here. Ends that are not written are not given here.
# Legend:
# HCT116 PTEN null cells [1] = assay: cAMP-Glo assay; type: cell-based, human; conditions: 15 minutes incubation
# Protocol: (§1) Cells were cultured in the McCoy's 5a complete growth medium overnight. The next day cAMP-Glo assay was performed according to manufacturer's instruction (Promega, Cat# V1502). Briefly, cell culture medium was removed by flipping the plate. […] Luminescence was measured using Tecan Salim II plate reader.
# (§2) To screen endogenous receptors and their coupled signaling pathways, we first assembled a GPCR agonist focused library (Table 1). The library consists of 120 GPCR agonists covering over 150 known GPCRs, based on their known pharmacology including polypharmacology. For small molecule chemical agonists, the dose used was 10 micromolar. For peptide agonists, the dose used was 1 micromolar. For lipid agonists, the dose used was also 1 micromolar. For both peptides and lipids, these agonists were suspended in a solution containing 0.05% bovine […] to increase their stability.
# (§3) cAMP assays were employed to investigate endogenous Gs-coupled receptors. FIG. 2 is a graph illustrating cAMP accumulation induced by GPCR agonists. The percentage of cAMP level after normalized to the forskolin-induced cAMP increase was plotted as a function of GPCR agonists. PCT116 parental (squares) was compared with HCT116-PTEN Null (diamonds) cell line.
# HCT116 parental cells [2] = assay: cAMP-Glo assay; type: cell-based, human; conditions: 15 minutes incubation
# Protocol: as §1, §2, §3
# HCT116 PTEN null cells [3] = assay: Calcium flux assay (FLUO-4, FDSS/FLIPR); type: cell-based, human; conditions: small molecule agonists 10 micromolar, peptide and lipid agonists 1 micromolar
# Source text: as §2
# HCT116 parental cells [4] = assay: Calcium flux assay (FLUO-4, FDSS/FLIPR); type: cell-based, human; conditions: small molecule agonists 10 micromolar, peptide and lipid agonists 1 micromolar
# Source text: as §2
# [5] = tested on: HCT116 parental cell line; assay: Label-free RWG biosensor DMR assay; type: cell-based, human; conditions: for kinase inhibitor drug-induced DMR signal: 16 μM
# Source text: (§4) EPIC® beta version wavelength interrogation system (Corning Inc., NY) was used for whole cell sensing. This system consists of a temperature-control unit, an optical detection unit, and an on-board liquid handling unit with robotics. The detection unit is centered on integrated fiber optics, and enables kinetic measures of cellular responses with a time interval of ˜15 sec. Also EPIC® commercial systems were used, with a liquid handler accessory attached to EPIC® reader system. Also, an Epic® RWG imager can be used.
# (§5) The resonant waveguide grating (RWG) biosensor is capable of detecting minute changes in local index of refraction near the sensor surface and the waveguide thin film having gratings provide a cell culture surface. Since the local index of refraction within a cell is a function of density and its distribution of biomass (e.g., proteins, molecular complexes), the biosensor exploits its evanescent wave to non-invasively detect ligand-induced Dynamic Mass Redistribution (DMR) in native cells. When a cell is stimulated, it responds. That response is a redistribution of biomass in the cell. Upon stimulation, proteins, protein complexes, and/or organelles in the cells move. The evanescent wave extends into the cells and exponentially decays over distance, leading to a characteristic sensing depth of ˜150 nm. Any optical response mediated through receptor activation only represents an average over the portion of the cell that the evanescent wave is sampling. The aggregation of many cellular events downstream to the receptor activation leads to a DMR signal having characteristic kinetics and amplitudes.
# (§6) All assays were carried out at a controlled temperature (28° C.). At least two independent sets of experiments, each with at least three replicates, were performed.
# [6] = tested on: HCT116-PTEN Null cell line; assay: Label-free RWG biosensor DMR assay; type: cell-based, human; conditions: for kinase inhibitor drug-induced DMR signal: HCT116-PTEN null; for kinase inhibitor drug-induced DMR signal / sensitivity of kinase inhibitor drug-induced DMR to PTEN deletion: 16 μM; for sensitivity of kinase inhibitor drug-induced DMR to PTEN deletion: PTEN null vs parental
# Source text: as §4, §5, §6
# [7] = tested on: IGF1-induced DMR in HCT116 parental cell line; assay: DMR reporter assay: modulation of IGF1-induced DMR by kinase inhibitor pretreatment; conditions: 2 nM IGF1; for alteration of the late response of the IGF1 DMR (signal at 50 min poststimulation): about 1 hr pretreatment at different doses; for impact on the early P-DMR amplitude of the IGF1 DMR: about 1 hr pretreatment
# [8] = tested on: IGF1-induced DMR in HCT116-PTEN Null cell line; assay: as above; conditions: 2 nM IGF1; for alteration of the late response of the IGF1 DMR (signal at 50 min poststimulation) / impact on the early P-DMR amplitude of the IGF1 DMR: HCT116-PTEN Null; for alteration of the late response of the IGF1 DMR (signal at 50 min poststimulation): about 1 hr pretreatment at different doses; for impact on the early P-DMR amplitude of the IGF1 DMR / potency to increase the late IGF1 response, PTEN-deleted vs parental cell line: about 1 hr pretreatment
molecule,measurement,setting,value
CCNC(=O)[C@H]1O[C@@H](n2cnc3c(N)nc(NCCc4ccc(CCC(=O)O)cc4)nc32)[C@H](O)[C@@H]1O [CGS21680],cAMP accumulation (normalized to forskolin-induced cAMP increase),HCT116 PTEN null cells [1],detectable cAMP accumulation
same,cAMP accumulation (normalized to forskolin-induced cAMP increase),HCT116 parental cells [2],detectable cAMP accumulation
"CCCCC[C@H](O)/C=C/[C@H]1[C@H](O)CC(=O)[C@@H]1C/C=C\CCCC(=O)O [PGE2, Peostaglandin E2]",cAMP accumulation (normalized to forskolin-induced cAMP increase),HCT116 PTEN null cells [1],detectable cAMP accumulation
same,cAMP accumulation (normalized to forskolin-induced cAMP increase),HCT116 parental cells [2],detectable cAMP accumulation
O=c1ccn([C@@H]2O[C@H](COP(=O)(O)OP(=O)(O)O)[C@@H](O)[C@H]2O)c(=O)[nH]1 [UDP],"Ca^2+ mobilization (fold increase in fluorescence, FLIPR)",HCT116 PTEN null cells [3],robust Ca^2+ mobilization
same,"Ca^2+ mobilization (fold increase in fluorescence, FLIPR)",HCT116 parental cells [4],robust Ca^2+ mobilization
"Nc1ncnc2c1ncn2[C@@H]1O[C@H](CO)[C@@H](O)[C@H]1O [adenosine, Adenosine]",effect of cholera toxin (CTx) pretreatment on the agonist DMR,[5],almost completely suppressed
same,receptor / signaling pathway activated (pathway deconvolution of DMR with toxins),"[5]; HCT116 parental, 10 μM agonist",primarily activates endogenous Gs-coupled adenosine A2B receptors
same,effect of pertussis toxin (PTx) pretreatment on the agonist DMR,"[5]; HCT116 parental, PTX 100 ng/ml overnight, 10 μM agonist",only accelerated
same,effect of cholera toxin (CTx) pretreatment on the agonist DMR,[6],almost completely suppressed
same,agonist DMR in PTEN deleted cell line compared to parental cell line (sensitivity to PTEN deletion),"[6]; 10 μM agonist (EGF, IGF1 1 μM)",greatly different
same,receptor / signaling pathway activated (pathway deconvolution of DMR with toxins),"[6]; HCT116-PTEN Null, 10 μM agonist",primarily activates endogenous Gs-coupled adenosine A2B receptors
same,effect of pertussis toxin (PTx) pretreatment on the agonist DMR,"[6]; HCT116-PTEN Null, PTX 100 ng/ml overnight, 10 μM agonist",only accelerated
"CNC[C@H](O)c1ccc(O)c(O)c1 [epinephrine, (−)epinephrine]",effect of pertussis toxin (PTx) pretreatment on the agonist DMR,[5],little effect
same,receptor / signaling pathway activated (pathway deconvolution of DMR with toxins),[5],primarily activates endogenous Gs-coupled beta1-adrenergic receptor
same,agonist DMR in PTEN deleted cell line compared to parental cell line (sensitivity to PTEN deletion),[6],greatly differed
same,effect of pertussis toxin (PTx) pretreatment on the agonist DMR,[6],little effect
same,receptor / signaling pathway activated (pathway deconvolution of DMR with toxins),[6],primarily activates endogenous Gs-coupled beta1-adrenergic receptor
C#Cc1cccc(Nc2ncnc3cc(OCCOC)c(OCCOC)cc23)c1 [erlotinib],kinase inhibitor drug-induced DMR signal,[5]; HCT116 parental,very small DMR signals
same,kinase inhibitor drug-induced DMR signal,[6],very small DMR signals
same,alteration of the late response of the IGF1 DMR (signal at 50 min poststimulation),[7],increased in the dose-dependent manner
same,impact on the early P-DMR amplitude of the IGF1 DMR,[7],little impact
same,alteration of the late response of the IGF1 DMR (signal at 50 min poststimulation),[8],increased in the dose-dependent manner
same,impact on the early P-DMR amplitude of the IGF1 DMR,[8],little impact
same,"potency to increase the late IGF1 response, PTEN-deleted vs parental cell line",[8],lower
CO[C@H]1C[C@@H]2CC[C@@H](C)[C@@](O)(O2)C(=O)C(=O)N2CCCC[C@H]2C(=O)O[C@H]([C@H](C)C[C@@H]2CC[C@@H](OCCO)[C@H](OC)C2)CC(=O)[C@H](C)/C=C(\C)[C@@H](O)[C@@H](OC)C(=O)[C@H](C)C[C@H](C)/C=C/C=C/C=C/1C [everolimus],kinase inhibitor drug-induced DMR signal,[5]; HCT116 parental,detectable DMR
same,sensitivity of kinase inhibitor drug-induced DMR to PTEN deletion,[6],suppressed or decreased the kinetics
C=C[C@@]1(C)CC(=O)[C@]2(O)[C@@]3(C)[C@@H](O)CCC(C)(C)[C@@H]3[C@H](O)[C@H](OC(C)=O)[C@@]2(C)O1 [forskolin],DMR signal amplitude,"[5]; HCT116 parental, GPCR agonist library profiling, 3-45 min poststimulation",greater than 80 picometer
same,DMR signal amplitude,"[6]; HCT116-PTEN Null, GPCR agonist library profiling, 3-45 min poststimulation",greater than 80 picometer
COc1cc2ncnc(Nc3ccc(F)c(Cl)c3)c2cc1OCCCN1CCOCC1 [gefitinib],alteration of the late response of the IGF1 DMR (signal at 50 min poststimulation),[7],increased in the dose-dependent manner
same,impact on the early P-DMR amplitude of the IGF1 DMR,[7],little impact
same,alteration of the late response of the IGF1 DMR (signal at 50 min poststimulation),[8],increased in the dose-dependent manner
same,impact on the early P-DMR amplitude of the IGF1 DMR,[8],little impact
same,"potency to increase the late IGF1 response, PTEN-deleted vs parental cell line",[8],lower
Cc1ccc(NC(=O)c2ccc(CN3CCN(C)CC3)cc2)cc1Nc1nccc(-c2cccnc2)n1 [imatinib],sensitivity of kinase inhibitor drug-induced DMR to PTEN deletion,[6],sensitive; also recorded: great sensitivity
same,alteration of the late response of the IGF1 DMR (signal at 50 min poststimulation),[7],dose-dependently increased
CS(=O)(=O)CCNCc1ccc(-c2ccc3ncnc(Nc4ccc(OCc5cccc(F)c5)c(Cl)c4)c3c2)o1 [lapatinib],kinase inhibitor drug-induced DMR signal,[5]; HCT116 parental,did not result in any detectable DMR
same,kinase inhibitor drug-induced DMR signal,[6],did not result in any detectable DMR
Cc1cn(-c2cc(NC(=O)c3ccc(C)c(Nc4nccc(-c5cccnc5)n4)c3)cc(C(F)(F)F)c2)cn1 [nilotinib],sensitivity of kinase inhibitor drug-induced DMR to PTEN deletion,[6],sensitive
CNC(=O)c1cc(Oc2ccc(NC(=O)Nc3ccc(Cl)c(C(F)(F)F)c3)cc2)ccn1 [sorafenib],kinase inhibitor drug-induced DMR signal,[5]; HCT116 parental,did not result in any detectable DMR
same,kinase inhibitor drug-induced DMR signal,[6],did not result in any detectable DMR
CO[C@H]1C[C@@H]2CC[C@@H](C)[C@@](O)(O2)C(=O)C(=O)N2CCCC[C@H]2C(=O)O[C@H]([C@H](C)C[C@@H]2CC[C@@H](OC(=O)C(C)(CO)CO)[C@H](OC)C2)CC(=O)[C@H](C)/C=C(\C)[C@@H](O)[C@@H](OC)C(=O)[C@H](C)C[C@H](C)/C=C/C=C/C=C/1C [temsirolimus],kinase inhibitor drug-induced DMR signal,[5]; HCT116 parental,detectable DMR
same,sensitivity of kinase inhibitor drug-induced DMR to PTEN deletion,[6],suppressed or decreased the kinetics
"Adrenomedulin (YRQSMNNFQGLRSFGCRFGTCTVQKLAHQIYQFTDKDKDNVAPRSKISPQGY; ends and bridges not checked; cysteine pairing not given here; UniProt P35318 95-146, looked up) [peptide agonist of adrenomedulin receptor]",cAMP accumulation (normalized to forskolin-induced cAMP increase),HCT116 PTEN null cells [1],detectable cAMP accumulation
same,cAMP accumulation (normalized to forskolin-induced cAMP increase),HCT116 parental cells [2],detectable cAMP accumulation
"Calcitonin (CGNLSTCMLGTYTQDFNKFHTFPQTAIGVGAP; ends and bridges not checked; cysteine pairing not given here; UniProt P01258 85-116, looked up) [peptide agonist of calcitonin receptor]",cAMP accumulation (normalized to forskolin-induced cAMP increase),HCT116 PTEN null cells [1],detectable cAMP accumulation
same,cAMP accumulation (normalized to forskolin-induced cAMP increase),HCT116 parental cells [2],detectable cAMP accumulation
"EGF: epidermal growth factor (EGF) (NSDSECPLSHDGYCLHDGVCMYIEALDKYACNCVVGYIGERCQYRDLKWWELR; Epidermal growth factor; UniProt P01133 971-1023, looked up)",agonist DMR in PTEN deleted cell line compared to parental cell line (sensitivity to PTEN deletion),"[6]; 10 μM agonist (EGF, IGF1 1 μM)",insensitive
IGF1: insulin growth factor-1 (IGF1),agonist-induced DMR signal,"[5]; HCT116 parental, untreated, 10 μM agonist (EGF, IGF1 1 μM)",robust DMR signal
same,agonist DMR in PTEN deleted cell line compared to parental cell line (sensitivity to PTEN deletion),"[6]; 10 μM agonist (EGF, IGF1 1 μM)",clear effects; also recorded: greater sensitivity
same,agonist-induced DMR signal,"[6]; HCT116-PTEN Null, untreated, 10 μM agonist (EGF, IGF1 1 μM)",robust DMR signal
"Vasoactive intestinal peptide (HSDAVFTDNYTRLRKQMAVKKYLNSILN; ends and bridges not checked; UniProt P01282 125-152, looked up) [VIP]",cAMP accumulation (normalized to forskolin-induced cAMP increase),HCT116 PTEN null cells [1],detectable cAMP accumulation
same,cAMP accumulation (normalized to forskolin-induced cAMP increase),HCT116 parental cells [2],detectable cAMP accumulation
